Data: patent publication US11478451B1, “Macrocyclic chlorine substituted indole derivatives” (Bayer Aktiengesellschaft, priority 2017, dated 2022)
Counter-ions that a name gives are not always drawn. Like-named read-outs stand apart in the source and are kept apart here.

What was measured:
[1] = system: AMO-1 cells; test: Antiproliferation assay (CellTiter-Glo, 72 h), AMO-1; assay type: cell-based; conditions: IC50, median, AMO-1, 72 h, read-out: Antiproli AMO-1 [M] median
Method in brief: (§1)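 CellTiter-Glo luminescence readout; 72 h compound exposure, 37 °C, humidified; rim wells excluded; time-zero reference plate plated in parallel and read identically.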

[2] = system: SUDHL5 cells; test: Induction of caspase-3/7 activity (Caspase-Glo 3/7), SUDHL5; assay type: cell-based; conditions: EC50, median, SUDHL5, 3 h treatment
Method in brief: (§2)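 Caspase-Glo 3/7 luminescence after 3 h compound treatment, 37 °C, humidified; medium-only background subtracted; rim wells excluded.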

[3] = system: HMC-1-8 cells; test: Antiproliferation assay (CellTiter-Glo, 72 h), HMC-1-8; assay type: cell-based; conditions: 72 h, IC50, median; HMC-1-8, 72 h; read-out: Antiproli HMC-1-8 [M] median
Method in brief: as §1

[4] = system: SUDHL10 cells; test: Induction of caspase-3/7 activity (Caspase-Glo 3/7), SUDHL10; assay type: cell-based; conditions: EC50, median, SUDHL10, 3 h treatment
Method in brief: as §2

[5] = system: SUDHL5 cells; test: Antiproliferation assay (CellTiter-Glo, 72 h), SUDHL5; assay type: cell-based; conditions: IC50, median, SUDHL5, 72 h, read-out: Antiproli SUDHL5 [M] (median)
Method in brief: as §1

[6] = system: SUDHL5 cells; test: Induction of cytotoxicity (CellTiter-Glo, 5 h), SUDHL5; conditions: SUDHL5, 5 h
[7] = system: SUDHL10 cells; test: Induction of cytotoxicity (CellTiter-Glo, 5 h), SUDHL10; conditions: SUDHL10, 5 h
[8] = Homo sapiens, SU-DHL10, 5 h, read-out: Cytotox SUDHL10 [M] (median), IC50, median
[9] = read-out: Cytotox SUDHL5 [M] (median), IC50, median
[10] = read-out: Cytotox SUDHL10 [M] (median), IC50, median
[11] = Homo sapiens, SU-DHL-5, 5 h, read-out: Cytotox SUDHL5 [M] (median), IC50, median

EC50 ([2]; listed as 085) [nM]	EC50 ([4]; Homo sapiens, SU-DHL10, 3 h) [nM]	IC50 ([5]; listed as 085) [M]	EC50 [2] [nM]	EC50 [4] [nM]	IC50 [5] [M]	EC50 ([2]; Homo sapiens, SU-DHL-5, 3 h) [nM]	IC50 ([5]; Homo sapiens, SU-DHL-5, 72 h) [M]	Compound	IC50 ([1]; listed as 085) [M]	IC50 [3] [M]	IC50 ([6]; read-out: Cytotox SUDHL5 [M] (median), IC50, median, listed as 085)	IC50 [7, 8] [M]	IC50 [1] [M]	IC50 [6, 9] [M]	IC50 [7, 10] [M]	IC50 ([1]; Homo sapiens, AMO1, 72 h) [M]	IC50 [6, 11] [M]
180	320	3.6e-07						CCc1c2c(nn1C)COCC(F)(F)CCn1c(C(=O)O)c(CCCOc3cccc4cc(F)ccc34)c3ccc(Cl)c-2c31 (single isomer, unassigned) [Example 85, (−)-4-chloro-3-ethyl-12,12-difluoro-7-{3-[(6-fluoronaphthalen-1-yl)oxy]propyl}-2-methyl-2,10,11,12,13,15-hexahydropyrazolo[4′,3′:9,10][1,6]oxazacycloundecino[8,7,6-hi]indole-8-carboxylic acid]	4.9e-07	3.3e-06	3e-07	9.8e-07					
			280	480	4.3e-07			CCc1c2c(nn1C)CN(C)CC(F)(F)CCn1c(C(=O)O)c(CCCOc3cccc4cc(F)ccc34)c3ccc(Cl)c-2c31 (single isomer, unassigned) [Example 127, 4-chloro-3-ethyl-12,12-difluoro-7-{3-[(6-fluoronaphthalen-1-yl)oxy]propyl}-2,14-dimethyl-10,11,12,13,14,15-hexahydro-2H-pyrazolo[3′,4′:8,9][1,6]diazacycloundecino[10,11,1-hi]indole-8-carboxylic acid]		2.2e-06			5.8e-07	2.4e-07	3.8e-07		
	720					420	8.8e-07	CCc1c2c(nn1C)CN(C)CC(F)(F)CCn1c(C(=O)O)c(CCCOc3cccc4cc(F)ccc34)c3ccc(Cl)c-2c31 (racemic) [Example 126, (rac)-4-Chloro-3-ethyl-12,12-difluoro-7-{3-[(6-fluoro-1-naphthyl)oxy]propyl}-2,14-dimethyl-10,11,12,13,14,15-hexahydro-2H-pyrazolo[3′,4′:8,9][1,6]diazacycloundecino[10,11,1-hi]indol-14-ium-8-carboxylate]		2.2e-06		8.7e-07				3.7e-07	5e-07
	590					280	8.2e-07	Cc1c2c(nn1C)COCC(F)(F)CCn1c(C(=O)O)c(CCCOc3cccc4cc(F)ccc34)c3ccc(Cl)c-2c31 (single isomer, unassigned) [Example 92, 4-chloro-12,12-difluoro-7-{3-[(6-fluoronaphthalen-1-yl)oxy]propyl}-2,3-dimethyl-2,10,11,12,13,15-hexahydropyrazolo[4′,3′:9,10][1,6]oxazacycloundecino[8,7,6-hi]indole-8-carboxylic acid]		6.8e-06		8.1e-07				5.4e-07	3.4e-07
	400					160	2e-07	Cc1c2c(nn1CCCN1CCN(C)CC1)COCCCCn1c(C(=O)O)c(CCCOc3cccc4ccccc34)c3ccc(Cl)c-2c31 (racemic) [Example 48, (rac)-4-chloro-3-methyl-2-[3-(4-methylpiperazin-1-yl)propyl]-7-{3-[(naphthalen-1-yl)oxy]propyl}-2,10,11,12,13,15-hexahydropyrazolo[4′,3′:9,10][1,6]oxazacycloundecino[8,7,6-hi]indole-8-carboxylic acid]		8.2e-07		3e-07				1.8e-07	1.8e-07
			660	700	7.4e-07			CCc1c2c(nn1C)CCCCCCn1c(C(=O)O)c(CCCOc3cccc4ccccc34)c3ccc(Cl)c-2c31 (single isomer, unassigned; enantiomer 2) [Example 53, (−) 4-chloro-3-ethyl-2-methyl-7-{3-[(naphthalen-1-yl)oxy]propyl}-10,11,12,13,14,15-hexahydro-2H-pyrazolo[4′,3′:4,5]azacycloundecino[3,2,1-hi]indole-8-carboxylic acid-N-ethylethanamine salt—Enantiomer 2]		6.9e-06			1.5e-06	4.8e-07	9.7e-07		
